Data taken from ChEMBL document CHEMBL3397006, “Synthesis and evaluation of the diarylthiourea analogs as novel anti-cancer agents” (Bioorg Med Chem Lett, 2015).
Activity calls are given as the source filed them. No cut-off for these calls is given here.

What was measured:
LNCaP [1] = assay: Cytotoxicity against human LNCAP cells assessed as reduction in cell viability after 48 hrs by MTT assay; format: functional
MDA-MB-453 [2] = assay: Cytotoxicity against human MDA-MB-453 cells assessed as reduction in cell viability after 48 hrs by MTT assay; format: functional; conditions: MDA-MB-453, 48 h
T47D [3] = assay: Cytotoxicity against human T47D cells assessed as reduction in cell viability after 48 hrs by MTT assay; format: functional
[4] = Cytotoxicity against human PC3 cells assessed as reduction in cell viability after 48 hrs by MTT assay; format: functional; conditions: PC-3, 48 h
MCF7 [5] = assay: Cytotoxicity against human MCF7 cells assessed as reduction in cell viability after 48 hrs by MTT assay; format: functional; conditions: MCF7, 48 h
DU-145 [6] = assay: Cytotoxicity against human DU145 cells assessed as reduction in cell viability after 48 hrs by MTT assay; format: functional; conditions: DU-145, 48 h
LNCaP [7] = assay: Growth inhibition of human LNCAP cells at 0.5 to 20 uM after 4 days by […] assay
LNCaP [8] = assay: Selectivity index, ratio of GI50 for human PC3 cells to GI50 for human LNCAP cells; format: functional
MDA-MB-453 [9] = assay: Growth inhibition of human MDA-MB-453 cells at 0.5 to 20 uM after 4 days by MTT assay; format: functional, cell-based
MCF7 [10] = assay: Growth inhibition of human MCF7 cells at 0.5 to 20 uM after 4 days by MTT assay; format: functional, cell-based
LNCaP [11] = assay: Selectivity index, ratio of GI50 for human DU145 cells to GI50 for human LNCAP cells; format: functional
T47D [12] = assay: Growth inhibition of human T47D cells at 0.5 to 20 uM after 4 days by MTT assay; format: functional, cell-based
[13] = Systemic bioavailability in rat; format: ADME, organism-based; conditions: in vivo
T47D [14] = assay: Growth inhibition of human T47D cells; format: functional
[15] = Growth inhibition of human PC3 cells; format: functional; conditions: PC-3
Toxicity in dog = conditions: in vivo
[16] = Protein binding in plasma (unknown origin); format: ADME, cell-free; conditions: read-out: PPB (converted)
MDA-MB-453 [17] = assay: Growth inhibition of human MDA-MB-453 cells; format: functional
MCF7 [18] = assay: Growth inhibition of human MCF7 cells; format: functional
DU-145 [19] = assay: Growth inhibition of human DU145 cells; format: functional

Row | bioavailability [13] [%] | GI50 (T47D [14]) [µM] | fraction unbound [16] | GI50 (MDA-MB-453 [17]) [µM] | GI50 (MCF7 [18]) [µM] | GI50 (DU-145 [19]) [µM] | Structure (SMILES) | GI50 (LNCaP [1]) [µM] | GI50 (MDA-MB-453 [2]) [µM] | GI50 (T47D [3]) [µM] | GI50 [4] [µM] | GI50 (MCF7 [5]) [µM] | GI50 (DU-145 [6]) [µM] | growth inhibition (GI) (LNCaP [7]) | Selectivity Index (LNCaP [8]) | growth inhibition (GI) (MDA-MB-453 [9]) | growth inhibition (GI) (MCF7 [10]) | Selectivity Index (LNCaP [11]) | growth inhibition (GI) (T47D [12]) | GI50 [15] [µM] | NOAEL (Toxicity in dog) [mg/kg]
1 | – | – | – | – | – | – | Cc1cc(=O)oc2cc(NC(=S)Nc3ccc([N+](=O)[O-])cc3)ccc12 | > 50 | > 50 | > 50 | > 50 | 9.89 | > 50 | – | – | – | – | – | – | – | –
2 | – | – | – | – | – | – | CCn1c2ccccc2c2cc(NC(=S)Nc3ccc([N+](=O)[O-])cc3)ccc21 | 5.86 | 6.88 | 9.44 | 19.6 | 12.8 | 5.87 | – | – | – | – | – | – | – | –
3 | – | – | – | – | – | – | O=[N+]([O-])c1ccc(NC(=S)Nc2cc3c4ccccc4ccc3c3ccccc23)cc1 | 3.54 | 4.77 | 2.53 | 20 | 3.16 | 21.8 | Active | 6 | Active | Active | 6 | Active | – | –
4 | < 1 | 4.8 | 0.007 | 5 | 4.5 | 4.9 | CC1(C)CC(C)(C)c2cc(NC(=S)Nc3ccc([N+](=O)[O-])cc3)ccc2S1 [SHETA-2] | 2.25 | 3.27 | 3.99 | 4.8 | 4.13 | 3.47 | – | – | – | – | – | – | 5 | > 1500
5 | – | – | – | – | – | – | O=[N+]([O-])c1ccc(NC(=S)Nc2ccc3c(c2)Cc2cc(Br)ccc2-3)cc1 | 11.3 | 6.2 | 3.96 | 16.5 | 7.81 | 17.5 | – | – | – | – | – | – | – | –
6 | – | – | – | – | – | – | Cc1cc2cc(NC(=S)Nc3ccc([N+](=O)[O-])cc3)ccc2[nH]1 | 40.5 | > 50 | 21.6 | > 50 | > 50 | > 50 | – | – | – | – | – | – | – | –
7 | – | – | – | – | – | – | CC(NC(=S)Nc1ccc([N+](=O)[O-])cc1)c1cccc2ccccc12 (stereo not drawn) | 6.05 | 6.27 | 2.94 | 13.9 | 6.21 | 13.7 | – | 2 | – | – | 2 | – | – | –
8 | – | – | – | – | – | – | CC1=C(/C=C/C(C)=C/C=C/C(C)=C/C(=O)O)C(C)(C)CCC1 [TRETINOIN] | 10.3 | 9.51 | 0.82 | 12.6 | 12.4 | 11.6 | – | – | – | – | – | – | – | –
9 | – | – | – | – | – | – | O=[N+]([O-])c1ccc(NC(=S)Nc2ccc3sccc3c2)cc1 | 23.5 | > 50 | 15.3 | > 50 | > 50 | > 50 | – | – | – | – | – | – | – | –
10 | – | – | – | – | – | – | O=c1oc2ccc(NC(=S)Nc3ccc([N+](=O)[O-])cc3)cc2c2ccccc12 | 12.8 | 27.6 | 8.68 | 22.6 | 13.1 | 24.1 | – | – | – | – | – | – | – | –
11 | – | – | – | – | – | – | O=[N+]([O-])c1ccc(NC(=S)Nc2cc3ccccc3c3ccccc23)cc1 | 7.29 | 14.5 | 11.6 | 19.3 | 13.3 | 6.11 | – | – | – | – | – | – | – | –
12 | – | – | – | – | – | – | Cc1ccc(NC(=S)Nc2ccc([N+](=O)[O-])cc2)cc1C | 10.6 | 13.5 | 8.14 | 26.8 | 17 | 35.1 | – | – | – | – | – | – | – | –
